Laboratory results from patent US4861897A, “2-Aryloxyalkylaminobenzoxazoles and 2-aryloxyalkylaminobenzothiazoles” (Ortho Pharmaceutical Corporation, priority 1987, dated 1989).

Key:
[1] = tested on: histamine stimulated parietal cell; test: Isolated parietal cell assay, inhibition of 14C-aminopyrine accumulation, histamine stimulated; format: cell-based, rabbit; details: Oryctolagus cuniculus, 20 min, Example 48, 37° C., read-out: IC50 vhist (inhibition of 14C-AP accumulation in histamine stimulated parietal cell)
Experimental: (§1) Isolated Parietal Cell Assay
(§2) The isolated parietal cell assay was conducted using the procedures of Batzri, S. et al., Biochemica et Biophysica Acta 508, 328 (1978) and Soll, A. H. Am. J. Physiol. 238, G366 (1980). Basically, parietal cells were isolated from the fundic mucosa of rabbit stomachs by a four-stage collagenase digestion process. The supernatant fractions from the last two stages of this process contain the individual parietal cells. This cell suspension was centrifuged and reconstituted in a modified Hank's buffer to contain 1-2×10^6 cells/ml. […] This accumulation was stimulated by histamine and was blocked by H2 antagonists. The cells were incubated with 0.4-0.5×10^6 cpm ^14 C-AP, with various concentrations of histamine as a stimulant, 1×10^-5 M isobutylmethylxanthine, and the test compound added in a 20 μl volume of buffer or DMSO. The flasks were incubated in a shaking water bath at 37° C. for 20 minutes. Two aliquots were then taken from each flask and cell pellets were collected by centrifugation. The pellets were solubilized with Protosol (New England Nuclear) and radioactivity determined by liquid scintillation spectrometry. Data is presented as the IC50 vhist, the concentration of compound required to inhibit ^14 C-AP accumulation in the histamine stimulated parietal cell by 50%. When dibutyryl cAMP was used to stimulate the cells instead of histamine, a similar inhibition of ^14 C-AP accumulation was measured and the data are presented as the IC50 vcAMP, the concentration required to inhibit ^14 C-AP accumulation in the cAMP stimulated parietal cells by 50%.

[2] = tested on: cAMP stimulated parietal cells; test: Isolated parietal cell assay, inhibition of 14C-aminopyrine accumulation, dibutyryl cAMP stimulated; format: cell-based, rabbit; details: Oryctolagus cuniculus, 20 min, Example 48, 37° C., read-out: IC50 vcAMP (inhibition of 14C-AP accumulation in cAMP stimulated parietal cells)
Experimental: as §1, §2

[3] = biological target: T1, parietal cell H^+ K^+ ATPase (Oryctolagus cuniculus, UniProt P27112); test: Inhibition of parietal cell H+ K+ ATPase; format: biochemical, New Zealand white rabbits; details: Example 49; for IC50: given as "50% @ x μM", read-out: % Inhibition at Concentration (H+ K+ ATPase): concentration given for 50% inhibition; for inhibition at 100 µM: @ 10^-4 M, read-out: % Inhibition at Concentration (H+ K+ ATPase)
T1 construct: determined in fundic mucosa from New Zealand white rabbits which were homogenized; from tissue; host or cells: fundic mucosa of New Zealand white rabbits, homogenized; membrane protein
Experimental: Inhibition of Parietal Cell H^+ K^+ ATPase
The activity was measured in a 1 ml incubation volume containing 50 mM Tris pH 7.4, 2 mM MgCl2, 2 mM Na2 ATP, with or without 20 mM KCl and vehicle control (dimethylsulfoxide) or test compound added in a 0.02 ml volume. Typically, 20-50 μg membrane protein was added and the tubes were preincubated with test compound for 10 minutes at 37° C. Substrate, Na2 ATP, was then added and the tubes were incubated for another 15 minutes at 37° C. The reaction was stopped by the addition of 1 ml 14% trichloroacetic acid and the samples were centrifuged at 2,000 xg for 10 minutes. The amount of inorganic phosphate present in an aliquot of supernatant was determined. H^+ K^+ ATPase activity was determined after correcting for the basal (Mg^++ only) enzyme activity present in the membrane preparation.

acid output = test: Gastric secretion, acid output in pylorus ligated rats; format: in vivo, male Charles River Sprague Dawley derived rats; details: Example 50, i.d. or s.c., four hours after pylorus ligation, compared to control; for response vs control in vivo at 20 mg/kg: @ 20 mpK; for % Acid Secreted at mpK: @ 10 mpK; for response vs control in vivo at 40 mg/kg: @ 40 mpK
Experimental: The inhibitory activity of the compounds on acid output was tested using pylorus ligation in a modification of the procedure of Shay, H. et al., Gastroenterology 26, 906 (1954). Basically, male Charles River Sprague Dawley derived rats weighing 150-300 grams were deprived of food but not water for 18-24 hours prior to use. Water was withheld during the experiment, however. The rats were weighed, anesthetized with ether and the pylorus ligated according to the method of Shay et al., supra. Treatment or vehicle control was then administered intraduodenally (i.d.) or subcutaneously (s.c.). Rats were housed two/cage and sacrificed with CO2 four hours after ligation. The stomachs were removed, rinsed, and contents emptied into a graduated centrifuge tube. The tubes were centrifuged, the volume of gastric juice recorded, and any samples obviously contaminated by feces, food or blood were eliminated. A 1 ml aliquot of gastric juice was titrated with 0.1N NaOH to a pH of 7.0-7.4. The volume of gastric juice secreted, the acid concentration, and the product of the volume times the concentration, i.e., the total amount of acid secreted, were measured.

[4] = Rattus norvegicus, 4 h, read-out: % Acid Secreted at mpK

T1 sequence (P27112 2-1035 limits assumed): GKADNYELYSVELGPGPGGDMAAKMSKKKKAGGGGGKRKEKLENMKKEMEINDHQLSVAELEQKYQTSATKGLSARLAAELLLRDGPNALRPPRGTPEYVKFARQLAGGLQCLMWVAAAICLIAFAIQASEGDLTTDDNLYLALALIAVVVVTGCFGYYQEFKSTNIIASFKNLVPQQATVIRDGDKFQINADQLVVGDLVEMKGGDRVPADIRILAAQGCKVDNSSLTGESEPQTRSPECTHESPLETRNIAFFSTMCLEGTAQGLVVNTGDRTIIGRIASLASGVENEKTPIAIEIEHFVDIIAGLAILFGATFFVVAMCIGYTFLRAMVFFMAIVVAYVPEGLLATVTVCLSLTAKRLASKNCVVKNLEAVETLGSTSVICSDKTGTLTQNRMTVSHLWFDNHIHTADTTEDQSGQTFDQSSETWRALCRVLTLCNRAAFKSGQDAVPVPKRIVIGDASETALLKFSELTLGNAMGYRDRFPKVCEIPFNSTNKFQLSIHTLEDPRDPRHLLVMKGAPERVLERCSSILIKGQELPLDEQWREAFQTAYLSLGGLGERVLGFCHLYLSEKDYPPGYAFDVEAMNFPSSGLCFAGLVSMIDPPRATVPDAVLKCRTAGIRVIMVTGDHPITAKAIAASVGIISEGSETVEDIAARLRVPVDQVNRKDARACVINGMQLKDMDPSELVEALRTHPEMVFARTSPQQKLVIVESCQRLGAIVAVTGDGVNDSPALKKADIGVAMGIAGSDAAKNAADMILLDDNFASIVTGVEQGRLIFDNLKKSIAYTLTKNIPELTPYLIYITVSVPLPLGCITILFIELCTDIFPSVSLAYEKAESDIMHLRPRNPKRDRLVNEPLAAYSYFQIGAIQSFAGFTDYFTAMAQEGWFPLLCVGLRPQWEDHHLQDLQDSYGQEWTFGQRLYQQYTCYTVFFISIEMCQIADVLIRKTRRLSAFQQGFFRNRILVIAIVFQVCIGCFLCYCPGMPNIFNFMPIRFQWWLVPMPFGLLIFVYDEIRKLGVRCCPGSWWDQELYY
T1 sequence (P18597 whole entry partner): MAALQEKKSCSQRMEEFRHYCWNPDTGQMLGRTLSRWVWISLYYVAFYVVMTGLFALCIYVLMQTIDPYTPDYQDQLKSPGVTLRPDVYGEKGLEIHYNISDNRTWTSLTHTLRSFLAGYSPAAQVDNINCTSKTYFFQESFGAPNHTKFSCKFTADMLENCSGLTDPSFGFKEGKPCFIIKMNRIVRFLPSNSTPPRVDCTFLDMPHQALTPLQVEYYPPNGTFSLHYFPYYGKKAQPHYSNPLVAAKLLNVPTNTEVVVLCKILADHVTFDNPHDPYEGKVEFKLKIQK

| SMILES | IC50 [1] | IC50 [2] | IC50 [3] | response vs control in vivo at 20 mg/kg (acid output; [4]) | inhibition at 100 µM [3] | % Acid Secreted at mpK (acid output) | response vs control in vivo at 5 mg/kg (acid output; Rattus norvegicus, 4 h, @ 5 mpK, read-out: % Acid Secreted at mpK) | response vs control in vivo at 40 mg/kg (acid output; [4]) |
| --- | --- | --- | --- | --- | --- | --- | --- | --- |
| CCCN(CCC)CCCOc1c(OC)cc(/C=C/c2nc3ccccc3o2)cc1OC [Example 46, (E)-2-[2-(3,5-Dimethoxy-4-dipropylaminopropoxyphenyl)ethenyl]benzoxazole] | 150 nM | 360 nM | 33 µM | 46% | – | – | – | – |
| C(=C\c1nc2ccccc2o1)/c1cccc(OCCCn2ccnc2)c1 [Example 4] | 210 nM | 340 nM | 10 µM | 38% | – | – | – | – |
| CCCCN(CCCC)CCCOc1cccc(/C=C/c2nc3ccccc3o2)c1 [Example 1] | 270 nM | 140 nM | – | 78% | 49% | 52% | 44% | – |
| CCCN(CCC)CCCCOc1cccc(/C=C/c2nc3ccccc3o2)c1 [Example 5] | 120 nM | 310 nM | 14 µM | 74% | – | 25% | – | – |
| COc1ccccc1N1CCN(CCCOc2ccc(/C=C/c3nc4ccccc4o3)cc2)CC1 [Example 14] | 600 nM | 800 nM | – | 8% | 43% | – | – | – |
| CCCN(CCC)CCCCOc1ccc(/C=C/c2nc3ccccc3o2)cc1 [Example 20] | 390 nM | 110 nM | 21 µM | 90% | – | 59% | – | – |
| CCN(CC)CCCOc1ccc(/C=C/c2nc3ccccc3s2)cc1 [Example 30, (E)-2-[2-(4-Diethylaminopropoxyphenyl)ethenyl]benzothiazole] | 370 nM | 150 nM | – | – | – | – | – | 71% |
| CCCN(CCC)CCCOc1cccc(/C=C/c2nc3ccccc3o2)c1 [Example 3, (E)-2-[2-(3-Dipropylaminopropoxyphenyl)ethyenyl]benzoxazole] | 200 nM | 240 nM | 29 µM | 49% | – | – | – | – |
| CCCN(CCC)CCCCOc1ccc(/C=C/c2nc3ccccc3o2)cc1Cl [Example 45, (E)-2-[2-(3-Chloro-4-dipropylaminobutoxyphenyl]ethenyl]benzoxazole] | 800 nM | 740 nM | 17.5 µM | 42% | – | – | – | – |
| CCCN(CCC)CCCOc1c(C)cc(/C=C/c2nc3ccccc3o2)cc1C [Example 47] | 140 nM | 100 nM | 15 µM | 90% | – | – | – | – |
| C(=C\c1nc2ccccc2s1)/c1ccc(OCCCCn2ccnc2)cc1 [Example 40, (E)-2-[2-(4-(1H-Imidazol-1-yl)butoxyphenyl)ethenyl]benzothiazole] | 200 nM | 260 nM | – | – | – | – | – | 17% |
| COc1ccc2nc(/C=C/c3cccc(OCCCCn4ccnc4)c3)oc2c1 [Example 7, (E)-2-[2-(3-(1H-Imidazol-1-yl)butoxyphenyl)ethenyl]-6-methoxybenzoxazole] | 120 nM | 180 nM | 74 µM | – | – | – | – | – |
| CCCCN(CCCC)CCCOc1ccc(/C=C/c2nc3ccccc3s2)cc1 [Example 28, (E)-2-[2-(4-Dibutylaminopropoxyphenyl)ethenyl]benzothiazole] | 21000 nM | 450 nM | – | 49% | 46% | 25% | – | – |
| CCCN(CCC)CCCOc1ccc(/C=C/c2nc3ccccc3o2)cc1 [Example 9, (E)-2-[2-(4-Dipropylaminopropoxyphenyl)ethenyl]benzoxazole] | 220 nM | 350 nM | 25 µM | 77% | – | 29% | – | 97% |
| CCCCN(CCCC)CCOc1ccc(/C=C/c2nc3ccccc3s2)cc1 [Example 37, (E)-2-[2-(4-Dibutylaminoethoxyphenyl)ethenyl]benzothiazole] | 430 nM | 600 nM | – | 14% | 43% | – | – | – |
| CCCCN(CCCC)CCCOc1ccc(-c2nc3ccccc3s2)cc1 [Example 43, 2-(4-Dibutylaminopropoxyphenyl)benzothiazole] | 250 nM | 2600 nM | 18 µM | – | – | – | – | – |
| CCCCN(CCCC)CCCOc1ccc(/C=C/c2nc3cc(Cl)ccc3s2)cc1 [Example 36, (E)-2-[2-(4-Dibutylaminopropoxyphenyl)ethenyl]-5-chlorobenzothiazole] | 400 nM | 500 nM | – | – | 52% | – | – | 26% |
| CCCCN(CCCC)CCCOc1cccc(/C=C/c2nc3ccccc3s2)c1 [Example 25] | 200 nM | 330 nM | – | 40% | 61% | – | – | – |
| COc1ccccc1N1CCN(CCCOc2ccc(/C=C/c3nc4ccccc4s3)cc2)CC1 [Example 31] | 1700 nM | 3400 nM | – | 11% | 33% | – | – | – |
| C(=C\c1nc2ccccc2o1)/c1ccc(OCCCCn2ccnc2)cc1 [Example 21] | 270 nM | 330 nM | 30 µM | 14% | – | – | – | – |
| CCCCN(CCCC)CCCOc1ccc(/C=C/c2nc3cc(C)ccc3s2)cc1 [Example 34, (E)-2-[2-(4-Dibutylaminopropoxyphenyl)ethenyl]-5-methylbenzothiazole] | 290 nM | 530 nM | – | 14% | 52% | – | – | – |
| CCN(CC)CCCOc1ccc(/C=C/c2nc3ccccc3o2)cc1 [Example 11, (E)-2-[2-(4-Diethylaminopropoxyphenyl)ethenyl]benzoxazole] | 320 nM | 980 nM | – | – | 20% | – | – | 54% |
| CCCCN(CCCC)CCOc1ccc(/C=C/c2nc3ccccc3o2)cc1 [Example 17, (E)-2-[2-(4-Dibutylaminoethoxyphenyl)ethenyl]benzoxazole] | 260 nM | 540 nM | – | 43% | 43% | – | – | – |
| CCCN(CCC)CCCOc1ccc(/C=C/c2nc3ccccc3s2)cc1 [Example 29, (E)-2-[2-(4-Dipropylaminopropoxyphenyl)ethenyl]benzothiazole] | 260 nM | 210 nM | – | 30% | – | – | – | – |
| C(=C\c1nc2ccccc2o1)/c1ccc(OCCCCN2CCCC2)cc1 [Example 23, (E)-2-[2-(4-Pyrrolinobutoxyphenyl)ethenyl]benzoxazole] | 170 nM | 240 nM | 84 µM | – | – | – | – | 24% |
| C(=C\c1nc2ccccc2s1)/c1ccc(OCCCn2ccnc2)cc1 [Example 32, (E)-2-[2-(4-(1H-Imidazol-1-yl)propoxyphenyl)ethenyl]benzothiazole] | 130 nM | 340 nM | – | 22% | – | – | – | – |
